Test results reported in patent US20210032257A1, “(E)-1-(4-(DIMETHYLAMINO)BUT-2-ENOYL)PYRROLIDIN-3-YL 4-((3-ISOPROPYL-5-METHYLPYRAZOLO[1,5-A]PYRIMIDIN-7-YL)AMINO)PIPERIDINE-1-CARBOXYLATE FOR INHIBITING CDK7” (Eli Lilly and Company, priority 2017, published 2021).

Tests used:
Assay in all cases: Biomarker study proliferation (CellTiter-Glo)
Type in all cases: cell-based
[1] = test system: RT112
Procedure, shortened: (§1)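 An ATP-based luminescent readout quantified growth inhibition following a seven-day incubation with serially diluted test compound. Cells were plated overnight beforehand at 5000 per well.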

[2] = test system: KP4
Procedure, shortened: as §1

[3] = test system: Karpas1106
Procedure, shortened: as §1

[4] = test system: DMS114
Procedure, shortened: as §1

[5] = test system: UACC812
Procedure, shortened: as §1

[6] = test system: LNCAP
Procedure, shortened: as §1

[7] = test system: SHSY5Y
Procedure, shortened: as §1

[8] = test system: AN3CA
Procedure, shortened: as §1

[9] = test system: U87MG
Procedure, shortened: as §1

[10] = test system: SNU475
Procedure, shortened: as §1

[11] = test system: SKMEL28
Procedure, shortened: as §1

[12] = test system: NCIH2030
Procedure, shortened: as §1

[13] = test system: T98G
Procedure, shortened: as §1

[14] = test system: SW900
Procedure, shortened: as §1

[15] = test system: SKOV3
Procedure, shortened: as §1

[16] = test system: KYSE270
Procedure, shortened: as §1

[17] = test system: HCC4006
Procedure, shortened: as §1

[18] = test system: SNU423
Procedure, shortened: as §1

## Cc1cc(NC2CCN(C(=O)O[C@H]3CCN(C(=O)/C=C/CN(C)C)C3)CC2)n2ncc(C(C)C)c2n1 [Example 1, [(3S)-1-[(E)-4-(dimethylamino)but-2-enoyl]pyrrolidin-3-yl] 4-[(3-isopropyl-5-methyl-pyrazolo[1,5-a]pyrimidin-7-yl)amino]piperidine-1-carboxylate]
[1]; Homo sapiens, RT-112, 168 h, read-out: Anti-proliferation effect IC50
  IC50: 32 nM
[1]; RT112, URINARY, 7 days
  Anti-proliferation effect % Inh.: 87%
  Anti-proliferation effect Outcome: Cytotoxic (cytotoxic (IC50<1 μM and % inhibition ≥70%))
[2]; Homo sapiens, KP-4, 168 h, read-out: Anti-proliferation effect IC50
  IC50: 36 nM
[2]; KP4, PANCREAS, 7 days
  Anti-proliferation effect % Inh.: 65%
  Anti-proliferation effect Outcome: Cytostatic (cytostatic (IC50<1 μM and % inhibition <70%))
[3]; 168 h, read-out: Anti-proliferation effect IC50
  IC50: 26 nM
[3]; Karpas1106, BLOOD, 7 days
  Anti-proliferation effect % Inh.: 98%
  Anti-proliferation effect Outcome: Cytotoxic (cytotoxic (IC50<1 μM and % inhibition ≥70%))
[4]; DMS114, LUNG, 7 days
  Anti-proliferation effect % Inh.: 65%
  Anti-proliferation effect Outcome: Cytostatic (cytostatic (IC50<1 μM and % inhibition <70%))
[4]; Homo sapiens, DMS-114, 168 h, read-out: Anti-proliferation effect IC50
  IC50: 14 nM
[5]; Homo sapiens, UACC-812, 168 h, read-out: Anti-proliferation effect IC50
  IC50: 76 nM
[5]; UACC812, BREAST, 7 days
  Anti-proliferation effect % Inh.: 58%
  Anti-proliferation effect Outcome: Cytostatic (cytostatic (IC50<1 μM and % inhibition <70%))
[6]; Homo sapiens, LNCaP, 168 h, read-out: Anti-proliferation effect IC50
  IC50: 59 nM
[6]; LNCAP, PROSTATE, 7 days
  Anti-proliferation effect % Inh.: 74%
  Anti-proliferation effect Outcome: Cytotoxic (cytotoxic (IC50<1 μM and % inhibition ≥70%))
[7]; Homo sapiens, SH-SY5Y, 168 h, read-out: Anti-proliferation effect IC50
  IC50: 59 nM
[7]; SHSY5Y, CNS, 7 days
  Anti-proliferation effect % Inh.: 95%
  Anti-proliferation effect Outcome: Cytotoxic (cytotoxic (IC50<1 μM and % inhibition ≥70%))
[8]; AN3CA, ENDOMETRIUM, 7 days
  Anti-proliferation effect % Inh.: 67%
  Anti-proliferation effect Outcome: Cytostatic (cytostatic (IC50<1 μM and % inhibition <70%))
[8]; Homo sapiens, AN3-CA, 168 h, read-out: Anti-proliferation effect IC50
  IC50: 50 nM
[9]; Homo sapiens, U-87 MG, 168 h, read-out: Anti-proliferation effect IC50
  IC50: 7360 nM
[9]; U87MG, CNS, 7 days
  Anti-proliferation effect % Inh.: −5%
  Anti-proliferation effect Outcome: Insensitive (insensitive (IC50≥1 μM))
[10]; Homo sapiens, SNU-475, 168 h, read-out: Anti-proliferation effect IC50
  IC50: 3920 nM
[10]; SNU475, LIVER, 7 days
  Anti-proliferation effect % Inh.: 28%
  Anti-proliferation effect Outcome: Insensitive (insensitive (IC50≥1 μM))
[11]; Homo sapiens, SK-MEL-28, 168 h, read-out: Anti-proliferation effect IC50
  IC50: 98 nM
[11]; SKMEL28, SKIN, 7 days
  Anti-proliferation effect % Inh.: 61%
  Anti-proliferation effect Outcome: Cytostatic (cytostatic (IC50<1 μM and % inhibition <70%))
[12]; Homo sapiens, NCI-H2030, 168 h, read-out: Anti-proliferation effect IC50
  IC50: 5370 nM
[12]; NCIH2030, LUNG, 7 days
  Anti-proliferation effect % Inh.: 9%
  Anti-proliferation effect Outcome: Insensitive (insensitive (IC50≥1 μM))
[13]; CNS, 7 days
  Anti-proliferation effect % Inh.: 44%
  Anti-proliferation effect Outcome: Insensitive (insensitive (IC50≥1 μM))
[13]; Homo sapiens, 168 h, read-out: Anti-proliferation effect IC50
  IC50: 1370 nM
[14]; Homo sapiens, SW900, 168 h, read-out: Anti-proliferation effect IC50
  IC50: 3810 nM
[14]; SW900, LUNG, 7 days
  Anti-proliferation effect % Inh.: 13%
  Anti-proliferation effect Outcome: Insensitive (insensitive (IC50≥1 μM))
[15]; Homo sapiens, SK-OV-3, 168 h, read-out: Anti-proliferation effect IC50
  IC50: > 10000 nM
[15]; SKOV3, OVARY, 7 days
  Anti-proliferation effect % Inh.: 27%
  Anti-proliferation effect Outcome: Insensitive (insensitive (IC50≥1 μM))
[16]; Homo sapiens, KYSE-270, 168 h, read-out: Anti-proliferation effect IC50
  IC50: > 10000 nM
[16]; KYSE270, OESOPHAGUS, 7 days
  Anti-proliferation effect % Inh.: −180%
  Anti-proliferation effect Outcome: Insensitive (insensitive (IC50≥1 μM))
[17]; HCC4006, LUNG, 7 days
  Anti-proliferation effect % Inh.: 57%
  Anti-proliferation effect Outcome: Cytostatic (cytostatic (IC50<1 μM and % inhibition <70%))
[17]; Homo sapiens, HCC4006, 168 h, read-out: Anti-proliferation effect IC50
  IC50: 28 nM
[18]; Homo sapiens, SNU-423, 168 h, read-out: Anti-proliferation effect IC50
  IC50: > 10000 nM
[18]; SNU423, LIVER, 7 days
  Anti-proliferation effect % Inh.: 40%
  Anti-proliferation effect Outcome: Insensitive (insensitive (IC50≥1 μM))
